# Experimental data from US20130217085A1, “METHODS FOR IMPROVING FERMENTATION YIELD OF POLYUNSATURATED FATTY ACIDS” (NANJING UNIVERSITY OF TECHNOLOGY, priority 2010, published 2013).
# System: Schizochytrium limacinum HX-308
# Assay: Shake-flask fermentation of Schizochytrium limacinum HX-308 with exogenous compatible solute added to the fermentation medium (fatty acid composition, DHA yield, biomass)
# Assay type: cell-based
# Description: The detection method of the following Examples is the same as that in the application titled “Schizochytrium limacinum and method of production of DHA oil using the same” (Application No. 200910033869.5) The strain is Schizochytrium limacinum HX-308 with deposit number CCTCC No. M209059. Seed medium: D-glucose 40 g/L, yeast extract 2 g/L, sodium glutamate 10 g/L, MgCl2 3 g/L, CaCl2·2H2O 1 g/L, KH2PO4 4 g/L, KCl 2 g/L, NaCl 15 g/L, MgSO4·7H2O 5 g/L, FeCl3 0.1 g/L. (See “A Schizochytrium limacinum and method of production of DHA oil using the same” (Application No. 200910033869.5)). Fermentation medium: D-glucose 40 g/L, yeast extract 2 g/L, sodium glutamate 10 g/L, MgCl2 3 g/L, (NH4)2SO4 6 g/L, KH2PO4 4 g/L, KCl 2 g/L, NaCl 15 g/L, MgSO4·7H2O 5 g/L, FeCl3 0.1 g/L. (See “A Schizochytrium limacinum and method of production of DHA oil using the same” (Application No. 200910033869.5)). Cultural method: strain was inoculated into seed medium with inoculation amount of 5% (v/v), cultured in a 500 mL shake flask for 24 h to log phase under 170 r at 25° C., and inoculated into the fermentation medium with addition of a certain amount of glycine betaine (such as 10 mmol/L, 40 mmol/L, 70 mmol/L, 100 mmol/L) in inoculation amount of 9% (v/v) for culturing; fermentation ceased when glucose reached an amount of 0 g/L. The results are shown in Table 1. The strain is Schizochytrium limacinum HX-308 with deposit number CCTCC No. M209059. Seed medium: D-glucose 40 g/L, yeast extract 2 g/L, sodium glutamate 10 g/L, MgCl2 3 g/L, CaCl2·2H2O 1 g/L, KH2PO4 4 g/L, KCl 2 g/L, NaCl 15 g/L, MgSO4·7H2O 5 g/L, FeCl3 0.1 g/L. Fermentation medium: D-glucose 40 g/L, yeast extract 2 g/L, sodium glutamate 10 g/L, MgCl2 3 g/L, (NH4)2SO4 6 g/L, KH2PO4 4 g/L, KCl 2 g/L, NaCl 15 g/L, MgSO4·7H2O 5 g/L, FeCl3 0.1 g/L. Cultural method: the strain was inoculated into seed medium with inoculation amount of 5% (v/v), cultured in a 500 mL shake flask for 24 h to log phase under 170 r at 25° C., and inoculated into the fermentation medium with addition of a certain amount of trehalose (such as 10 mmol/L, 40 mmol/L, 80 mmol/L) in inoculation amount of 9% (v/v); fermentation ceased when glucose reached an amount of 0 g/L. The results are shown in Table 2.
structure (smiles),measurement,setting,value
OC[C@H]1O[C@H](O[C@H]2O[C@H](CO)[C@@H](O)[C@H](O)[C@H]2O)[C@H](O)[C@@H](O)[C@@H]1O [trehalose],increase of DHA yield,"appropriate amount of trehalose, versus no addition",92%
same,DHA yield,"appropriate amount of trehalose, increased from 3.9 g/L",7.5 g/L
same,yield of total fatty acids,"appropriate amount of trehalose, increased from 8.8 g/L",16.7 g/L
same,ratio of DHA in total biomass,"appropriate amount of trehalose, increased from 57",99 mg/g
same,Biomass,"appropriate amount of trehalose, increased from 60 g/L",76 g/L
same,ARA (% total fatty acids),exogenous trehalose 10 mM,0.6 % total fatty acids
same,Biomass,exogenous trehalose 10 mM,70 g/L
same,C14:0 (% total fatty acids),exogenous trehalose 10 mM,9.5 % total fatty acids
same,C16:0 (% total fatty acids),exogenous trehalose 10 mM,22.3 % total fatty acids
same,DHA (% total fatty acids),exogenous trehalose 10 mM,44.8 % total fatty acids
same,DHA (mg/g biomass),exogenous trehalose 10 mM,57.1 mg/g biomass
same,DHA yield,exogenous trehalose 10 mM,4 g/L
same,DPA (% total fatty acids),exogenous trehalose 10 mM,12.3 % total fatty acids
same,EPA (% total fatty acids),exogenous trehalose 10 mM,1.6 % total fatty acids
same,Others (% total fatty acids),exogenous trehalose 10 mM,8.1 % total fatty acids
same,Squalene (% total fatty acids),exogenous trehalose 10 mM,0.8 % total fatty acids
same,Total fatty acid yield,exogenous trehalose 10 mM,8.9 g/L
same,ARA (% total fatty acids),exogenous trehalose 40 mM,1.9 % total fatty acids
same,Biomass,exogenous trehalose 40 mM,74 g/L
same,C14:0 (% total fatty acids),exogenous trehalose 40 mM,9.6 % total fatty acids
same,C16:0 (% total fatty acids),exogenous trehalose 40 mM,21.3 % total fatty acids
same,DHA (% total fatty acids),exogenous trehalose 40 mM,47.4 % total fatty acids
same,DHA (mg/g biomass),exogenous trehalose 40 mM,56.6 mg/g biomass
same,DHA yield,exogenous trehalose 40 mM,4.2 g/L
same,DPA (% total fatty acids),exogenous trehalose 40 mM,12.6 % total fatty acids
same,EPA (% total fatty acids),exogenous trehalose 40 mM,1.8 % total fatty acids
same,Others (% total fatty acids),exogenous trehalose 40 mM,4.5 % total fatty acids
same,Squalene (% total fatty acids),exogenous trehalose 40 mM,0.9 % total fatty acids
same,Total fatty acid yield,exogenous trehalose 40 mM,8.9 g/L
same,ARA (% total fatty acids),exogenous trehalose 80 mM,1.2 % total fatty acids
same,Biomass,exogenous trehalose 80 mM,76 g/L
same,C14:0 (% total fatty acids),exogenous trehalose 80 mM,10.7 % total fatty acids
same,C16:0 (% total fatty acids),exogenous trehalose 80 mM,23.2 % total fatty acids
same,DHA (% total fatty acids),exogenous trehalose 80 mM,45 % total fatty acids
same,DHA (mg/g biomass),exogenous trehalose 80 mM,99.3 mg/g biomass
same,DHA yield,exogenous trehalose 80 mM,7.5 g/L
same,DPA (% total fatty acids),exogenous trehalose 80 mM,12.2 % total fatty acids
same,EPA (% total fatty acids),exogenous trehalose 80 mM,1.3 % total fatty acids
same,Others (% total fatty acids),exogenous trehalose 80 mM,5.5 % total fatty acids
same,Squalene (% total fatty acids),exogenous trehalose 80 mM,0.9 % total fatty acids
same,Total fatty acid yield,exogenous trehalose 80 mM,16.7 g/L
same,ARA (% total fatty acids),exogenous trehalose 160 mM,1.0 % total fatty acids
same,Biomass,exogenous trehalose 160 mM,78 g/L
same,C14:0 (% total fatty acids),exogenous trehalose 160 mM,11.0 % total fatty acids
same,C16:0 (% total fatty acids),exogenous trehalose 160 mM,22.5 % total fatty acids
same,DHA (% total fatty acids),exogenous trehalose 160 mM,43.2 % total fatty acids
same,DHA (mg/g biomass),exogenous trehalose 160 mM,89.7 mg/g biomass
same,DHA yield,exogenous trehalose 160 mM,7 g/L
same,DPA (% total fatty acids),exogenous trehalose 160 mM,12.1 % total fatty acids
same,EPA (% total fatty acids),exogenous trehalose 160 mM,1.4 % total fatty acids
same,Others (% total fatty acids),exogenous trehalose 160 mM,8.3 % total fatty acids
same,Squalene (% total fatty acids),exogenous trehalose 160 mM,0.5 % total fatty acids
same,Total fatty acid yield,exogenous trehalose 160 mM,16.2 g/L
same,Biomass,exogenous trehalose 200 mM,81 g/L
same,C14:0 (% total fatty acids),exogenous trehalose 200 mM,11.7 % total fatty acids
same,C16:0 (% total fatty acids),exogenous trehalose 200 mM,21.5 % total fatty acids
same,DHA (% total fatty acids),exogenous trehalose 200 mM,41.7 % total fatty acids
same,DHA (mg/g biomass),exogenous trehalose 200 mM,78 mg/g biomass
same,DHA yield,exogenous trehalose 200 mM,6.3 g/L
same,DPA (% total fatty acids),exogenous trehalose 200 mM,11.5 % total fatty acids
same,EPA (% total fatty acids),exogenous trehalose 200 mM,1.4 % total fatty acids
same,Others (% total fatty acids),exogenous trehalose 200 mM,12.2 % total fatty acids
same,Total fatty acid yield,exogenous trehalose 200 mM,15.1 g/L
same,ARA (% total fatty acids),exogenous trehalose 280 mM,1.0 % total fatty acids
same,Biomass,exogenous trehalose 280 mM,76 g/L
same,C14:0 (% total fatty acids),exogenous trehalose 280 mM,11.1 % total fatty acids
same,C16:0 (% total fatty acids),exogenous trehalose 280 mM,22.7 % total fatty acids
same,DHA (% total fatty acids),exogenous trehalose 280 mM,39.1 % total fatty acids
same,DHA (mg/g biomass),exogenous trehalose 280 mM,29 mg/g biomass
same,DHA yield,exogenous trehalose 280 mM,2.2 g/L
same,DPA (% total fatty acids),exogenous trehalose 280 mM,10.8 % total fatty acids
same,EPA (% total fatty acids),exogenous trehalose 280 mM,7.7 % total fatty acids
same,Others (% total fatty acids),exogenous trehalose 280 mM,7.6 % total fatty acids
same,Total fatty acid yield,exogenous trehalose 280 mM,5.6 g/L
